Three compounds from patent US7439262B1, “Substituted 1-alkylamino-1-H-indazoles for the treatment of glaucoma” (Alcon, Inc., priority 2003, dated 2008) can be followed below.

Counter-ions that a name gives are not always drawn.

Series [1] has as its target T1, 5-HT2A (Rattus norvegicus, UniProt P14842). Briefly: 5-HT2 Receptor Binding Assay ([125I]DOI competition). The conditions noted are these: [125I]DOI binding, post mortem rat or human cerebral cortex homogenates. As for the experimental part: 5-HT2 Receptor Binding Assay
Aliquots of post mortem rat or human cerebral cortex homogenates (400 μL) dispersed in 50 mM Tris HCl buffer (pH 7.4) are incubated with [^125I]DOI (80 pM final) in the absence or presence of methiothepin (10 μM final) to define total and non-specific binding, respectively, in a total volume of 0.5 mL. The assay mixture is incubated for 1 hour at 23° C. in polypropylene tubes and the assays terminated by rapid vacuum filtration over Whatman GF/13 glass fiber filters previously soaked in 0.3% polyethyleneimine using ice-cold buffer. Test compounds (at different concentrations) are substituted for methiothepin. Filter-bound radioactivity is determined by scintillation spectrometry on a beta counter. The data are analyzed using a non-linear, iterative curve-fitting computer program [Trends Pharmacol. Sci., 16, 413 (1995)] to determine the compound affinity parameter. The concentration of the compound needed to inhibit the [^125I]DOI binding by 50% of the maximum is termed the […].

In series [2] the target is T1, 5-HT2A. Briefly: 5-HT2 Functional Assay: [Ca2+]i Mobilization (FLIPR). The conditions noted are these: for EC50: [Ca2+]i mobilization, A7r5 rat vascular smooth muscle cells; for Emax: percentage of a maximum 5-HT-induced response, A7r5 cells. On the set-up: endogenous in cells; host or cells: A7r5 rat vascular smooth muscle cells. It is filed as cell-based. As for the experimental part:
5-HT2 Functional Assay: [Ca^2+]i Mobilization
The receptor-mediated mobilization on intracellular calcium ([Ca^2+]i) was studied using the Fluorescence Imaging Plate Reader (FLIPR) instrument. Rat vascular smooth muscle cells, A7r5, were grown in a normal media of DMEM/10% FBS and 10 μg/mL gentamycin. Confluent cell monolayers were trypsinized, pelleted, and re-suspended in normal media. Cells were seeded in a 50 μL volume at a density of 20,000 cells/well in a black wall, 96-well tissue culture plate and grown for 2 days.
On the day of the experiment, one vial of FLIPR Calcium Assay Kit dye was re-suspended in 50 mL of a FLIPR buffer consisting of Hank's Balanced Salt Solution (HBSS), 20 mM HEPES, and 2.5 mM probenecid, pH 7.4. Cells were loaded with the calcium-sensitive dye by addition of an equal volume ([…]) to each well of the 96-well plate and incubated with dye for 1 h at 23° C.
Typically, test compounds were stored at 25 μM in 50% DMSO/50% Ethanol solvent. Compounds were diluted 1:50 in 20% DMSO/20% Ethanol. For “hit” screening, compounds were further diluted 1:10 in FLIPR buffer and tested at a final concentration of 10 μM. For dose-response experiments, compounds were diluted 1:50 in FLIPR buffer and serially diluted 1:10 to give a 5- or 8-point dose-response curve.
The compound plate and cell plate were placed in the FLIPR instrument. At the beginning of an experimental run, a signal test was performed to check the basal fluorescence signal from the dye-loaded cells and the uniformity of the signal across the plate. The basal fluorescence was adjusted between 8000-12000 counts by modifying the exposure time, the camera F-stop, or the laser power. Instrument settings for a typical assay were the following: laser power 0.3-0.6 W, camera F-stop F/2, and exposure time 0.4 sec. An aliquot (25 μL) of the test compound was added to the existing 100 μL dye-loaded cells at a dispensing speed of 50 μL/sec. Fluorescence data were collected in real-time at 1.0 sec intervals for the first 60 secs and at 6.0 sec intervals for an additional 120 secs. Responses were measured as peak fluorescence intensity minus basal and where appropriate were expressed as a percentage of a maximum 5-HT-induced response [Emax %]. When the compounds were tested as antagonists against 10 μM 5-HT, they were incubated with the cells for 15 minutes prior to the addition of 5-HT.

T1 sequence (P14842 whole entry): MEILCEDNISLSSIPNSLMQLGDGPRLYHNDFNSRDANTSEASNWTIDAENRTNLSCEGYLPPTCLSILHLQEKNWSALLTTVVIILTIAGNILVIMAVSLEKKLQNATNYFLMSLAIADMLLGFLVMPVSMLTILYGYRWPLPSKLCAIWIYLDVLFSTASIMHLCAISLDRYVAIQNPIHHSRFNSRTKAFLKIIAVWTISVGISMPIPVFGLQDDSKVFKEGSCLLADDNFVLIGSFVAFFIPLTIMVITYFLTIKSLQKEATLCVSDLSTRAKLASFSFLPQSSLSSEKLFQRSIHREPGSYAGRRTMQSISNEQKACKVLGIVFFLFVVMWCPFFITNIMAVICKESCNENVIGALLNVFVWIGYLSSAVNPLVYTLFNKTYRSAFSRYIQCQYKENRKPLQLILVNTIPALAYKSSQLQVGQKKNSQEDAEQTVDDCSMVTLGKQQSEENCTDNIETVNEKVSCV

In turn, `CCOC(=O)c1ccc2cnn(C[C@H](C)N)c2c1` [Example 1, 1-((S)-2-Aminopropyl)-1H-indazole-6-carboxylic acid ethyl ester] displayed an IC50 on 5-HT2A [1] of 0.01 µM. On 5-HT2A [2], this compound returned an EC50 of 0.837 µM and an Emax of 86%.

Consider `C[C@H](N)Cn1ncc2ccc(C(N)=O)cc21` [Example 2, 1-((S)-2-Aminopropyl)-1H-indazole-6-carboxylic acid amide], for which the melting point is 170 to 172 °C. At 5-HT2A [1], the IC50 was 0.0059 µM. Also, on 5-HT2A [2], the EC50 amounted to 0.465 µM and the Emax was found to be 90%.

Regarding `CCOC(=O)c1ccc2cnn(C[C@H](C)N)c2c1` (as salt: fumaric acid salt) [Example 1, 1-((S)-2-Aminopropyl)-1H-indazole-6-carboxylic acid ethyl ester], the melting point fell in the range of 150 to 152 °C.
